Data taken from US8592466B2, “Methods for treating conditions caused by higher-than-normal dopaminergic activity in basal ganglia” (Neuropill, Inc., priority 2008, dated 2013).

Assay: Phase I cocaine interaction study: heart rate and blood pressure
Conditions: cocaine 20 mg and 40 mg i.v., most P-values<0.05

COC(=O)[C@H]1[C@@H](OC(=O)c2ccccc2)C[C@@H]2CC[C@H]1N2C [cocaine, reference compound]
HR/SBP/DBP after cocaine infusion: significant elevation
